Experimental data from US6423701B1, “Water soluble amine esters of testosterone for intranasal administration” (University of Kentucky, priority 1996, dated 2002).

Assay: Nasal absorption of TSDG in rats: plasma levels after intranasal and intravenous administration, HPLC
Assay type: in vivo
Details: male, Sprague-Dawley, rat
Method: Male Sprague-Dawley rats weighing 250-275 gm were used. Animals were fasted overnight before the experiment, but water was given ad libitum. All surgical procedures were performed under sodium pentobarbital anesthesia (40 mg/kg i.p.). An incision was made in the neck, and the trachea was cannulated with a polyethylene tube. A closed tube was inserted through the esophagus to the posterior part of the nasal cavity. The nasopalatine passage was closed with an adhesive agent to prevent drainage of the drug from the nasal cavity to the mouth.
Blood samples were collected from a cannula inserted into the femoral artery. For intravenous administration, the jugular vein was cannulated for administering the dose.
For intravenous administration, the same dose of the drug was injected through the jugular vein.
Blood samples were collected at 0, 5, 10, 20, 30, 40, 60, 90, 120, 150, and 180 minutes. After immediate centrifugation (3000×g for 3 min), the plasma was separated. The animal was sacrificed after the last sample was obtained, and the samples were then analyzed by HPLC, using the method of Hsyu et al. (Pharm. Res. 11:156-159, 1994). Briefly, plasma concentrations of testosterone free base were determined via a HPLC protocol which included solid-phase extraction, separation on a reverse-phase cyano column, and UV detection at 305 nm.

Work on `C[C@]12CC[C@H]3[C@@H](CCC4=CC(=O)CC[C@@]43C)[C@@H]1CC[C@@H]2O` [TS, 17β-hydroxyandrost-4-en-3-one] yielded an AUC (inhaled or intranasal, intranasal, dose 25 mg/kg) of 1830 ng·h/mL, an AUC (inhaled or intranasal, intranasal, dose 50 mg/kg) of 3490 ng·h/mL and an AUC (intravenous, dose 25 mg/kg) of 1770 ng·h/mL. For the same compound, the AUC (intravenous, dose 50 mg/kg) was 3780 ng·h/mL.
